Source: BindingDB's records for doi:10.1021/jm00108a040 (Eli Lilly, 1991)

Assays:
[1] = molecular target: Gastrin/cholecystokinin type B receptor (Cavia porcellus); assay: Inhibition of [125I]-labeled CCK-8 sulfate binding to Cholecystokinin type B receptor in guinea pig brain membranes
[2] = molecular target: Gastrin/cholecystokinin type B receptor (Cavia porcellus); assay: as above; remark: listed apart in the source

IC50 [1]: 330 nM
IC50 [2]: 330 nM
Structure (SMILES): CCc1cccc(-n2c(CCc3c[nH]c4ccc(Br)cc34)nc3ccccc3c2=O)c1
